Assay results: patent publication US8853424B2 (Japan Science and Technology Agency, priority 2008, dated 2014)
Where two headings read alike, the source gives them in different places.

How the values were obtained:
[1] = tested on: SOC (store operated calcium channel); test: Measurement of SOC IC50 (thapsigargin store depletion, calcium re-addition, CHO cells); format: cell-based; conditions: read-out: SOC IC50
Procedure: The SOC (store operated calcium channel)-suppressive action can be measured by the method described in the Example and using, for example, FDSS 3000.
CHO cell culture medium was replaced with a BSS solution which is an extracellular fluidfree of calcium, the compound of the present invention was added 1 min later, and 1 μM thapsigargin was allowed to act thereon 2 min later to deplete intracellular calcium store. […]

[2] = tested on: transglutaminase (TGase); test: Measurement of TG (TGase inhibitory activity, monodansyl cadaverine / N,N-dimethylcasein fluorescence, FDSS 3000); format: biochemical
Summary of the method: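 Compound (1 μL of 10 mM stock) added to 0.1 mL reaction: 100 mM HEPES-NaOH pH 7.5, 1 mM CaCl2, 20 μM monodansyl cadaverine, 0.05 mg/mL N,N-dimethylcasein, 5 μg/mL TGase. Rate of fluorescence change at 340 nm measured; DMSO control set to 100; TG50 is the concentration halving activity.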

[3] = tested on: Truncated N-terminal huntington 150 Q-EGFP-Neuron 2a cells; test: Measurement of x-Fold (polyglutamine aggregation inhibitory activity); format: cell-based
Procedure: In the present invention, the polyglutamine aggregation inhibitory activity (x-Fold) can be measured, for example, by the method described in the Example.
The number of the aggregated cells, and the total number of cells were counted by Array Scan V T1 (manufactured by Cellomics, Pittuburg, USA), and the ratio of the aggregated cells to the total number of cells was determined (x-Fold). […]

[4] = CHO cells, 1 μM thapsigargin, 2 mM calcium chloride
[5] = TGase activity with compound (10 mM, 1 μL in 0.1 ml enzyme reaction solution), DMSO control taken as 100
[6] = TGase inhibitory activity measurement, unit not given
[7] = polyglutamine aggregation, Truncated N-terminal huntington 150 Q-EGFP-Neuron 2a cells
[8] = ratio of aggregated cells to total number of cells, compound 20 μM, 20 hr, almost 1 without compound, smaller = stronger inhibition
[9] = Cricetulus griseus, CHO, CHO cells, 1 μM thapsigargin, 2 mM calcium chloride
[10] = Cricetulus griseus, CHO, Table 1
[11] = TGase inhibitory activity value, Table 1
[12] = polyglutamine aggregation inhibitory activity, Table 1

Compound | IC50 [1, 4] | TGase activity remaining (% of DMSO control = 100) [2, 5] | IC50 [1, 9] | IC50 [1, 10] | TGase activity remaining (% of DMSO control = 100) [2, 11] | x-Fold [3, 8] | x-Fold [3, 12] | other results
NC(=O)CCC(N)C(=O)OB(c1ccccc1)c1ccccc1 (stereo not shown) [Example 269, diphenyl(glutaminate-O,N)borane] |  | 95 | 3000 nM | 3000 nM |  | 1.01 |  | TGase activity remaining (% of DMSO control = 100) ([2]; TGase inhibitory activity value, Table 1, listed as 879): 95; x-Fold ([3]; polyglutamine aggregation inhibitory activity, Table 1, listed as 879): 1.01
4,4′(phenyl-2-aminoethoxyboryl)diphenyl [Example 10] | 500 nM | 7 |  |  | 7 | 0.92 | 0.92 | 
O=C1O[B-](c2ccccc2)(c2ccccc2)[NH2+]C1Cc1ccccc1 (stereo not shown) [Example 259, diphenyl(phenylalaninate-O,N)borane] |  | 67 | 2500 nM | 2500 nM | 67 | 0.97 | 0.97 | 
bis(3-chloro-4-methylphenyl 2-pyridylmethoxyborylphenyl)ether [Example 117] | 1500 nM | 108 |  |  |  | 0.06 |  | 
Cc1ccc(B(Oc2ccccc2N)c2ccc(C)c(Cl)c2)cc1Cl [Example 220, di(3-chloro-4-methylphenyl) 2-aminophenylborinate] |  | 26 | 500 nM | 500 nM | 26 | 0.50 | 0.50 | 
OB(c1ccccc1)c1ccc(COCc2ccc(B(O)c3ccccc3)cc2)cc1 [Example 137, bis((4,4′-phenylhydroxyboryl)benzyl)ether] | 300 nM | 14 |  |  |  | 0.99 |  | 
CCC(C)B(OCCN)c1ccccc1 (stereo not shown) [Example 110, aminoethyl secondary-butyl phenylborinate] |  | 115 | > 10000 nM | > 10000 nM | 115 | 1.02 | 1.02 | 
NC(CS)C(=O)OB(c1ccccc1)c1ccccc1 (stereo not shown) [Example 266, diphenyl(cysteinate-O,N)borane] |  | 84 | 3000 nM | 3000 nM | 84 | 0.87 | 0.87 | 
4,4′-((2-aminoethoxy)(3-chloro-4-methylphenyl)boryl)diphenylether [Example 249] | 300 nM | 25 |  |  | 25 | 0.74 | 0.74 | 
NC(=O)CC(N)C(=O)OB(c1ccc(COCc2ccc(B(OC(=O)C(N)CC(N)=O)c3ccc(C(F)(F)F)cc3)cc2)cc1)c1ccc(C(F)(F)F)cc1 (stereo not shown) [Example 185, bis(4,4′-(p-trifluoromethylphenyl-asparagineboryl)benzyl)ether] | > 20000 nM | 130 |  |  |  | 0.94 |  | 
Cc1ccc(Cl)cc1B(OCCN)c1cc(Cl)ccc1C [Example 244, di(5-chloro-2-methylphenyl) 2-aminoethylborinate] |  | 74 | 1000 nM |  |  | 0.76 |  | 

More lines, main results first:

IC50 [1, 4] | TGase activity remaining (% of DMSO control = 100) [2, 5] | IC50 [1, 9] | IC50 [1, 10] | TGase activity remaining (% of DMSO control = 100) [2, 11] | Compound | x-Fold [3, 8] | x-Fold [3, 12] | other results
700 nM | 102 |  |  |  | c1ccc(B(OCc2ccccn2)c2ccc(COc3ccc(B(OCc4ccccn4)c4ccccc4)cc3)cc2)cc1 [Example 429, (4-phenyl-2-pyridylmethoxyborylphenyl)(4′-phenyl-2-pyridylmethoxyborylbenzyl)ether] | 0.81 |  | TGase activity remaining (% of DMSO control = 100) [2, 6]: 102; x-Fold [3, 7]: 0.81
500 nM | −5 |  |  |  | NCCSB(c1ccccc1)c1ccc(Oc2ccc(B(SCCN)c3ccccc3)cc2)cc1 [Example 433, bis(4,4′-(phenyl-aminoethylthioboryl)phenyl)ether] | 0.71 |  | TGase activity remaining (% of DMSO control = 100) [2, 6]: −5; x-Fold [3, 7]: 0.71
 | 2 | 300 nM | 300 nM | 2 | NCCOB(c1ccccc1)c1cccc(COCc2cccc(Oc3ccccc3)c2)c1 [Example 278, (3-phenoxybenzyl)-(3′-(phenyl-2-aminoethoxyboryl)benzyl)ether] | 1.08 | 1.08 | 
1500 nM | 29 |  |  |  | NCCCCC(N)C(=O)OB(c1ccccc1)c1ccc(COCc2ccc(B(OC(=O)C(N)CCCCN)c3ccccc3)cc2)cc1 (stereo not shown) [Example 409, bis(4,4′-(phenyl-lysineboryl)benzyl)ether] | 0.86 |  | TGase activity remaining (% of DMSO control = 100) [2, 6]: 29; x-Fold [3, 7]: 0.86
300 nM | 60 |  |  |  | c1ccc(B(OCc2ccccn2)c2ccc(Oc3ccc(B(OCc4ccccn4)c4ccccc4)cc3)cc2)cc1 [Example 432, bis(4,4′-(phenyl-2-pyridylmethoxyboryl)phenyl)ether] | 0.71 |  | TGase activity remaining (% of DMSO control = 100) [2, 6]: 60; x-Fold [3, 7]: 0.71
250 nM | 83 |  |  |  | NC(=O)CCC(N)C(=O)OB(c1ccccc1)c1ccc(Oc2ccc(B(OC(=O)C(N)CCC(N)=O)c3ccccc3)cc2)cc1 (stereo not shown) [Example 273, bis(4,4′-(phenyl-glutamineboryl)phenyl)ether] | 0.56 |  | TGase activity remaining (% of DMSO control = 100) ([2]; TGase inhibitory activity value, Table 1, listed as 1024): 83; x-Fold ([3]; polyglutamine aggregation inhibitory activity, Table 1, listed as 1024): 0.56
500 nM | 15 |  |  |  | CCCCNCCOB(c1ccccc1)c1ccc(COCc2ccc(B(OCCNCCCC)c3ccccc3)cc2)cc1 [Example 454, bis(4,4′-(phenyl-butylaminoethoxyboryl)benzyl)ether] | 0.97 |  | TGase activity remaining (% of DMSO control = 100) [2, 6]: 15; x-Fold [3, 7]: 0.97
 | 21 | 300 nM | 300 nM | 21 | NCCOB(c1ccccc1)c1cccc(COCc2ccccc2B(OCCN)c2ccccc2)c1 [Example 334] | 1.02 | 1.02 | 
 | 70 | > 20000 nM | > 20000 nM | 70 | CC(C)(C)c1cc(B(O)c2ccccc2)c2c(c1)C(C)(C)c1cc(C(C)(C)C)cc(B(O)c3ccccc3)c1O2 [Example 377, 4,5-di(phenylhydrixyboryl)-2,7-di-tert-butyl-9,9-dimethylxanthrene] | 0.75 | 0.75 | 
250 nM | 15 |  |  |  | CNCCOB(c1ccccc1)c1cccc(COCc2cccc(B(OCCNC)c3ccccc3)c2)c1 [Example 469, bis(3,3′-(phenyl-N-methylaminoethoxyboryl)benzyl)ether] | 0.94 |  | TGase activity remaining (% of DMSO control = 100) [2, 6]: 15; x-Fold [3, 7]: 0.94
 | 83 | 300 nM | 300 nM |  | NCC(N)C(=O)OB(c1ccccc1)c1ccccc1 (stereo not shown) [Example 272, diphenyl(2,3-diaminopropionate-O,N)borane] | 0.09 |  | TGase activity remaining (% of DMSO control = 100) ([2]; TGase inhibitory activity value, Table 1, listed as 2043): 83; x-Fold ([3]; polyglutamine aggregation inhibitory activity, Table 1, listed as 2043): 0.09
 | 109 | 500 nM | 500 nM | 109 | NCCCCC(N)C(=O)OB(c1ccccc1)c1ccccc1 (stereo not shown) [Example 271, diphenyl(lysinate-O,N)borane] | 1.07 | 1.07 | 
1400 nM | 20 |  |  |  | NC(=O)CCC(N)C(=O)OB(c1ccc(Oc2ccc(B(OC(=O)C(N)CCC(N)=O)c3cccc4ccccc34)cc2)cc1)c1cccc2ccccc12 (stereo not shown) [Example 444, bis(4,4′-(naphthylglutamineboryl)phenyl)ether] | 0.65 |  | TGase activity remaining (% of DMSO control = 100) [2, 6]: 20; x-Fold [3, 7]: 0.65
 | 41 |  |  |  | CN(C)CCOB(c1ccccc1)c1cccc(COCc2cccc(B(OCCN(C)C)c3ccccc3)c2)c1 [Example 464, bis(3,3′-(phenyl-dimethylaminoethoxyboryl)benzyl)ether] | 0.76 |  | IC50 ([1]; CHO cells, 1 μM thapsigargin, 2 mM calcium chloride, no unit printed): 800 nM; TGase activity remaining (% of DMSO control = 100) ([2]; TGase inhibitory activity measurement, unit not given, listed as 3021): 41; x-Fold ([3]; polyglutamine aggregation, Truncated N-terminal huntington 150 Q-EGFP-Neuron 2a cells, listed as 3021): 0.76
